Laboratory results published in PubChem BioAssay AID1963980 (Molecular Pharmacology Branch, DTP, NCI, 2024).

System: 475296-252-R-J1-PDC spheroid viability
Assay: Anticancer human tumor 475296-252-R-J1-PDC patient-derived rectal carcinoma cell line growth inhibition [PI3K]
Settings: spheroids with HUVEC and MSC; for IC50: curve of first compound; for viability, T/C: stronger effect = lower value
Text: Combinatorial screen of targeted agents with the PI3K inhibitors inavolisib, alpelisib, duvelisib, and copanlisib in multi-cell type tumor spheroids
A high-throughput screen of multi-cell type tumor spheroids was designed to identify active combinations of targeted small molecules and PI3K pathway inhibitors. Complex spheroids include a stromal component modeled by human endothelial cells (HUVEC) and fibroblasts modeled by human mesenchymal stem cells (MSCs). The concentration ranges selected for each drug and investigational agent were based upon clinically achievable concentrations if the clinical Cmax of the agent was known.
Compounds. The drugs and investigational agents: inavolisib (NSC800729), alpelisib (NSC765974), duvelisib (NSC772469), copanlisib (NSC816437), ipatasertib (NSC767898), afuresertib (NSC778305), talazoparib (NSC767125), sapanisertib (NSC764658), selumetinib (NSC741078), tovorafenib (DAY101, NSC766906), vemurafenib (NSC761431), ravoxertinib (NSC781343), sotorasib (NSC818433), MRTX1133 (NSC 836407), abemaciclib (NSC 768073), palbociclib (NSC758247), venetoclax (NSC 766270), SY5609 (NSC837396), enzalutamide (NSC755605), and darolutamide (NSC825331), were obtained from the National Cancer Institute (NCI) Developmental Therapeutics Program Chemical Repository. The FDA-approved anticancer drug set is available from the NCI Developmental Therapeutics Program. […] The stock solutions were prepared in dimethyl sulfoxide (DMSO, Sigma-Aldrich, St. Louis, MO, cat. D2650) at 800-fold the tested concentration and stored at -70 degrees C prior to their use. All drugs and investigational agents were tested over a range starting from a high concentration at or near the clinical Cmax and decreasing in half-log increments. If the clinical Cmax for an agent had not been determined, the highest concentration tested was 10 microM.
Cell Culture. All cells were maintained in an incubator at 37 degrees C and 5% CO2 with 95% humidity. The PDC lines were cultured according to standard operating procedures established by the NCI PDMR (https://pdmr.cancer.gov/sops/default.htm). All PDCs were thawed and cultured in Matrigel-coated flasks prepared with a working solution of 1X Ham's F-12 nutrient mix, without supplementation (Invitrogen, Waltham, MA, cat. 11765054), 100 U/mL penicillin-streptomycin (Invitrogen, cat. 15140122), and 2.5% Matrigel (Corning Inc., Corning, NY, cat. 354248) for the first three passages. The 354836-022-R-J1-PDC, 475296-252-R-J1-PDC, and 997726-040-R-J2-PDC lines were cultured in 6A media, which includes advanced DMEM/F-12 (Thermo Fisher Scientific, cat. 12634028), 10 mM HEPES (Thermo Fisher Scientific, cat. 15630080), 1X GlutaMAX supplement (Thermo Fisher Scientific, cat. 35050061), 0.1 mg/mL primocin (InvivoGen, San Diego, CA, cat. ant-pm-2), 10% defined fetal bovine serum, heat inactivated (HyClone Laboratories Inc., Logan, UT, cat. SH30070.03HI), 50% L-WRN conditioned media (ATCC, cat. CRL-3276), 1.25 mM N-Acetyl-L-cysteine (Sigma-Aldrich, cat. A9165), 10 mM nicotinamide (Sigma-Aldrich, cat. N0636), 1X B-27 supplement (Thermo Fisher Scientific, cat. 17504044), 1X N-2 supplement (Thermo Fisher Scientific, cat. 17502048), and 10 microM Y-27632 dihydrochloride (Tocris Bioscience, Bristol, United Kingdom, cat. 1254). The 624824-186-R-J2-PDC line was cultured in 6C/Colon 1B media, which includes all 6A media components plus 50 ng/mL human EGF recombinant protein (Thermo Fisher Scientific, cat. PHG0311). […]

[1] = second compound 0.00316 µM, first compound 0.0316 µM
[2] = second compound 0.00316 µM, first compound 0.1 µM
[3] = second compound 0.00316 µM, first compound 0.316 µM
[4] = second compound 0.00316 µM, first compound 1 µM
[5] = second compound 0.00316 µM, first compound 3.16 µM
[6] = second compound 0.00316 µM, first compound 10 µM
[7] = second compound 0.01 µM, first compound 0.0316 µM
[8] = second compound 0.01 µM, first compound 0.1 µM
[9] = second compound 0.01 µM, first compound 0.316 µM
[10] = second compound 0.01 µM, first compound 1 µM
[11] = second compound 0.01 µM, first compound 3.16 µM
[12] = second compound 0.01 µM, first compound 10 µM
[13] = second compound 0.0316 µM, first compound 0.0316 µM
[14] = second compound 0.0316 µM, first compound 0.1 µM
[15] = second compound 0.0316 µM, first compound 0.316 µM
[16] = second compound 0.0316 µM, first compound 1 µM
[17] = second compound 0.0316 µM, first compound 3.16 µM
[18] = second compound 0.0316 µM, first compound 10 µM
[19] = second compound 0.1 µM, first compound 0.0316 µM
[20] = second compound 0.1 µM, first compound 0.1 µM
[21] = second compound 0.1 µM, first compound 0.316 µM
[22] = second compound 0.1 µM, first compound 1 µM
[23] = second compound 0.1 µM, first compound 3.16 µM
[24] = second compound 0.1 µM, first compound 10 µM
[25] = second compound 0.316 µM, first compound 0.0316 µM
[26] = second compound 0.316 µM, first compound 0.1 µM
[27] = second compound 0.316 µM, first compound 0.316 µM
[28] = second compound 0.316 µM, first compound 1 µM
[29] = second compound 0.316 µM, first compound 3.16 µM
[30] = second compound 0.316 µM, first compound 10 µM
[31] = second compound 1 µM, first compound 0.0316 µM
[32] = second compound 1 µM, first compound 0.1 µM
[33] = second compound 1 µM, first compound 0.316 µM
[34] = second compound 1 µM, first compound 1 µM
[35] = second compound 1 µM, first compound 3.16 µM
[36] = second compound 1 µM, first compound 10 µM
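Further: spheroids exposed to agents for seven days before readout.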

`CC1(C)CCC(CN2CCN(c3ccc(C(=O)NS(=O)(=O)c4ccc(NCC5CCOCC5)c([N+](=O)[O-])c4)c(Oc4cnc5[nH]ccc5c4)c3)CC2)=C(c2ccc(Cl)cc2)C1` + CC(Nc1ccc2c(c1)OCCn1cc(N3C(=O)OCC3C(F)F)nc1-2)C(N)=O was tested. Which IC50 (second compound 0.00316 µM) did it give?
The IC50 was > 10 µM.

And the IC50 (second compound 0.01 µM)?
Its IC50 is > 10 µM.

What about the IC50 (second compound 0.0316 µM) of the same compound?
The IC50 was > 10 µM.

What about the IC50 (second compound 0.1 µM) of the same compound?
The IC50 was > 10 µM.

What about the IC50 (second compound 0.316 µM) of the same compound?
Its IC50 is > 10 µM.

What about the IC50 (second compound 1 µM) of the same compound?
Its IC50 is > 10 µM.

And the viability, T/C [1]?
Its viability, T/C is 109%.

What about the viability, T/C [2] of the same compound?
Its viability, T/C is 94.4%.

And the viability, T/C [3]?
Its viability, T/C is 92.3%.

What about the viability, T/C [4] of the same compound?
The viability, T/C was 87.3%.

And the viability, T/C [5]?
The viability, T/C was 86.3%.

What about the viability, T/C [6] of the same compound?
The viability, T/C was 84.2%.

What about the viability, T/C [7] of the same compound?
Its viability, T/C is 92.4%.

And the viability, T/C [8]?
The viability, T/C was 85.5%.

What about the viability, T/C [9] of the same compound?
The viability, T/C was 101%.

What about the viability, T/C [10] of the same compound?
The viability, T/C was 83.2%.

And the viability, T/C [11]?
The viability, T/C was 93%.

What about the viability, T/C [12] of the same compound?
The viability, T/C was 74.5%.

And the viability, T/C [13]?
The viability, T/C was 95.5%.

And the viability, T/C [14]?
The viability, T/C was 96%.

What about the viability, T/C [15] of the same compound?
The viability, T/C was 94.3%.

And the viability, T/C [16]?
Its viability, T/C is 96.2%.

And the viability, T/C [17]?
The viability, T/C was 96.9%.

And the viability, T/C [18]?
The viability, T/C was 77.2%.

What about the viability, T/C [19] of the same compound?
The viability, T/C was 87.7%.

And the viability, T/C [20]?
The viability, T/C was 96.1%.

And the viability, T/C [21]?
Its viability, T/C is 87%.

What about the viability, T/C [22] of the same compound?
The viability, T/C was 97.1%.

What about the viability, T/C [23] of the same compound?
The viability, T/C was 90.4%.

And the viability, T/C [24]?
Its viability, T/C is 73.7%.

And the viability, T/C [25]?
The viability, T/C was 85.2%.

And the viability, T/C [26]?
The viability, T/C was 83.8%.

What about the viability, T/C [27] of the same compound?
Its viability, T/C is 93.9%.

And the viability, T/C [28]?
Its viability, T/C is 88.3%.

What about the viability, T/C [29] of the same compound?
The viability, T/C was 81.2%.

What about the viability, T/C [30] of the same compound?
Its viability, T/C is 74.1%.

What about the viability, T/C [31] of the same compound?
The viability, T/C was 93.7%.

What about the viability, T/C [32] of the same compound?
The viability, T/C was 82.3%.

And the viability, T/C [33]?
The viability, T/C was 85.8%.

And the viability, T/C [34]?
The viability, T/C was 89.6%.

What about the viability, T/C [35] of the same compound?
Its viability, T/C is 82.6%.

What about the viability, T/C [36] of the same compound?
Its viability, T/C is 72.8%.

Which results are given for `C[C@@H](NC(=O)c1ncnc(N)c1Cl)c1ncc(C(=O)Nc2cc(C(F)(F)F)c(Cl)cn2)s1` + CC(Nc1ccc2c(c1)OCCn1cc(N3C(=O)OCC3C(F)F)nc1-2)C(N)=O?
IC50 (second compound 0.00316 µM): > 10 µM; IC50 (second compound 0.01 µM): > 10 µM; IC50 (second compound 0.0316 µM): > 10 µM; IC50 (second compound 0.1 µM): > 10 µM; IC50 (second compound 0.316 µM): > 10 µM; IC50 (second compound 1 µM): > 10 µM; viability, T/C [1]: 98.9%; viability, T/C [2]: 84%; viability, T/C [3]: 99.5%; viability, T/C [4]: 108%; viability, T/C [5]: 93.8%; viability, T/C [6]: 90%; viability, T/C [7]: 95%; viability, T/C [8]: 76%; viability, T/C [9]: 103%; viability, T/C [10]: 103%; viability, T/C [11]: 108%; viability, T/C [12]: 89%; viability, T/C [13]: 80.3%; viability, T/C [14]: 102%; viability, T/C [15]: 100%; viability, T/C [16]: 116%; viability, T/C [17]: 96.7%; viability, T/C [18]: 79.3%; viability, T/C [19]: 90.3%; viability, T/C [20]: 93.1%; viability, T/C [21]: 102%; viability, T/C [22]: 93.8%; viability, T/C [23]: 103%; viability, T/C [24]: 69%; viability, T/C [25]: 87.7%; viability, T/C [26]: 85.9%; viability, T/C [27]: 91.7%; viability, T/C [28]: 93.6%; viability, T/C [29]: 84.5%; viability, T/C [30]: 76.6%; viability, T/C [31]: 77.7%; viability, T/C [32]: 84.6%; viability, T/C [33]: 95.4%; viability, T/C [34]: 93%; viability, T/C [35]: 83%; viability, T/C [36]: 63.6%
